This note sets out measurements from patent US20240199587A1, “HETEROCYCLIC COMPOUNDS” (Hoffmann-La Roche Inc., priority 2021, published 2024).

By IC50 is commonly meant the point on the concentration scale where inhibition reaches its midpoint. Higher therefore signals weaker potency in that assay.

This assay concerns the target T1, MAGL (Homo sapiens, UniProt Q99685).
T1 sequence (Q99685 1-303): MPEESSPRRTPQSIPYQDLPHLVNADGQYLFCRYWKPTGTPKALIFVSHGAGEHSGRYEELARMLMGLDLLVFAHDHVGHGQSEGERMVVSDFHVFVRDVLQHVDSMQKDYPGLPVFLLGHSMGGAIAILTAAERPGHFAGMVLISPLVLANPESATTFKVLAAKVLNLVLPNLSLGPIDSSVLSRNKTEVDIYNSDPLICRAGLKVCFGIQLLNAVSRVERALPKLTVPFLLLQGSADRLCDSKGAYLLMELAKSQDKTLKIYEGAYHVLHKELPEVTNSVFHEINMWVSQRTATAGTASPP
Put plainly: 2-AG assay (MAGL inhibitory activity, hydrolysis of 2-arachidonoylglycerol to arachidonic acid followed by mass spectrometry). It is filed as biochemical. To be noted: 8 μM 2-arachidonoylglycerol, 15 min pre-incubation, 30 min incubation at RT, RapidFire MS readout. The method in brief:
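Arachidonic acid released from 8 μM 2-arachidonoylglycerol was quantified by online SPE triple-quadrupole MS (negative ESI, 303.1→259.1), normalised to d8-arachidonic acid internal standard. Reaction ran 30 min at RT after 15 min RT compound pre-incubation with […] MAGL in TRIS/EDTA/Tween-20 buffer, 2.5% DMSO.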
`Cc1noc(C)c1S(=O)(=O)N1CC2(CN(C(=O)N3CC4(CC(n5cnc(C6CC6)n5)C4)C3)C2)C1` [Example 281, [6-(3-cyclopropyl-1,2,4-triazol-1-yl)-2-azaspiro[3.3]heptan-2-yl]-[2-(3,5-dimethylisoxazol-4-yl)sulfonyl-2,6-diazaspiro[3.3]heptan-6-yl]methanone]: the concentration for half-maximal inhibition (IC50) was found to be 41.3 nM.
The molecule `COc1ccc(S(=O)(=O)N2CC3(CN(C(=O)N4CC5(CC(n6cnc(C7CC7)n6)C5)C4)C3)C2)cc1` [Example 282, [6-(3-cyclopropyl-1,2,4-triazol-1-yl)-2-azaspiro[3.3]heptan-2-yl]-[2-(4-methoxyphenyl)sulfonyl-2,6-diazaspiro[3.3]heptan-6-yl]methanone] displayed an IC50 of 44.6 nM.
For `O=C(N1CC(Oc2ccnc(C(F)(F)F)n2)C1)N1CC2(CC(n3cnc(C4CC4)n3)C2)C1` [Example 283, [6-(3-cyclopropyl-1,2,4-triazol-1-yl)-2-azaspiro[3.3]heptan-2-yl]-[3-[2-(trifluoromethyl)pyrimidin-4-yl]oxyazetidin-1-yl]methanone] the value was 48.3 nM.
`O=C(N1CC2(CC(n3cnc(C4CC4)n3)C2)C1)N1CC2(C1)CN(S(=O)(=O)N1CCCC1)C2` [Example 284, [6-(3-cyclopropyl-1,2,4-triazol-1-yl)-2-azaspiro[3.3]heptan-2-yl]-(2-pyrrolidin-1-ylsulfonyl-2,6-diazaspiro[3.3]heptan-6-yl)methanone]: the IC50 came to 49.9 nM.
`O=C(N1CC(Oc2cc(C(F)(F)F)ncn2)C1)N1CC2(CC(n3cnc(C4CC4)n3)C2)C1` [Example 285, [6-(3-cyclopropyl-1,2,4-triazol-1-yl)-2-azaspiro[3.3]heptan-2-yl]-[3-[6-(trifluoromethyl)pyrimidin-4-yl]oxyazetidin-1-yl]methanone] yielded an IC50 of 54.3 nM. The IC50 values of the last two molecules are within 1.5-fold of each other.
`O=C(N1CC2(CC(n3cnc(C4CC4)n3)C2)C1)N1CC2(C1)CN(S(=O)(=O)c1cccc(Cl)n1)C2` [Example 286, [2-[(6-chloro-2-pyridyl)sulfonyl]-2,6-diazaspiro[3.3]heptan-6-yl]-[6-(3-cyclopropyl-1,2,4-triazol-1-yl)-2-azaspiro[3.3]heptan-2-yl]methanone] came in with an IC50 of 58.6 nM.
Then `N#Cc1cccc(S(=O)(=O)N2CC3(CN(C(=O)N4CC5(CC(n6cnc(C7CC7)n6)C5)C4)C3)C2)c1` [Example 287, 3-[[6-[6-(3-cyclopropyl-1,2,4-triazol-1-yl)-2-azaspiro[3.3]heptane-2-carbonyl]-2,6-diazaspiro[3.3]heptan-2-yl]sulfonyl]benzonitrile], with 59.4 nM; and `CC1(S(=O)(=O)N2CC3(CN(C(=O)N4CC5(CC(n6cnc(C7CC7)n6)C5)C4)C3)C2)CC1` [Example 288, [6-(3-cyclopropyl-1,2,4-triazol-1-yl)-2-azaspiro[3.3]heptan-2-yl]-[2-(1-methylcyclopropyl)sulfonyl-2,6-diazaspiro[3.3]heptan-6-yl]methanone], with 62 nM.
Then `O=C(N1CC(c2nnc(-c3ccc(F)cc3F)[nH]2)C1)N1CC2(CC(n3cnc(C4CC4)n3)C2)C1` [Example 289, [6-(3-cyclopropyl-1,2,4-triazol-1-yl)-2-azaspiro[3.3]heptan-2-yl]-[3-[5-(2,4-difluorophenyl)-4H-1,2,4-triazol-3-yl]azetidin-1-yl]methanone], with 62.1 nM.
For `COc1cc(F)ccc1S(=O)(=O)N1CC2(CN(C(=O)N3CC4(CC(n5cnc(C6CC6)n5)C4)C3)C2)C1` [Example 290, [6-(3-cyclopropyl-1,2,4-triazol-1-yl)-2-azaspiro[3.3]heptan-2-yl]-[2-(4-fluoro-2-methoxy-phenyl)sulfonyl-2,6-diazaspiro[3.3]heptan-6-yl]methanone] the value was 70.7 nM.
`O=C(c1ccc(F)cc1Cl)N1CC2(C1)CN(C(=O)N1CC3(CC(n4cnc(C5CC5)n4)C3)C1)C2` [Example 292, (2-chloro-4-fluoro-phenyl)-[2-[6-(3-cyclopropyl-1,2,4-triazol-1-yl)-2-azaspiro[3.3]heptane-2-carbonyl]-2,6-diazaspiro[3.3]heptan-6-yl]methanone] yielded an IC50 of 77.1 nM.
For `NS(=O)(=O)c1ccc(C2CN(C(=O)N3CC4(CC(n5cnc(C6CC6)n5)C4)C3)C2)cc1` [Example 293, 4-[1-[6-(3-cyclopropyl-1,2,4-triazol-1-yl)-2-azaspiro[3.3]heptane-2-carbonyl]azetidin-3-yl]benzenesulfonamide] the value was 78 nM; for `NC(=O)c1ccc(F)c(S(=O)(=O)N2CC3(CN(C(=O)N4CC5(CC(n6cnc(C7CC7)n6)C5)C4)C3)C2)c1` [Example 294], 81.6 nM.
As for `CC(=O)Nc1ccc(S(=O)(=O)N2CC3(CN(C(=O)N4CC5(CC(n6cnc(C7CC7)n6)C5)C4)C3)C2)cc1` [Example 295, N-[4-[[6-[6-(3-cyclopropyl-1,2,4-triazol-1-yl)-2-azaspiro[3.3]heptane-2-carbonyl]-2,6-diazaspiro[3.3]heptan-2-yl]sulfonyl]phenyl]acetamide], the IC50 turned out to be 89 nM.
Then `O=C(N1CC2(CC(n3cnc(C4CC4)n3)C2)C1)N1CC2(C1)CN(S(=O)(=O)CC1CC1)C2` [Example 296, [2-(cyclopropylmethylsulfonyl)-2,6-diazaspiro[3.3]heptan-6-yl]-[6-(3-cyclopropyl-1,2,4-triazol-1-yl)-2-azaspiro[3.3]heptan-2-yl]methanone], with 91.5 nM; and `O=C(N1CC2(CC(n3cnc(C4CC4)n3)C2)C1)N1CC2(C1)CN(S(=O)(=O)c1cccnc1C(F)(F)F)C2` [Example 297, [6-(3-cyclopropyl-1,2,4-triazol-1-yl)-2-azaspiro[3.3]heptan-2-yl]-[2-[[2-(trifluoromethyl)-3-pyridyl]sulfonyl]-2,6-diazaspiro[3.3]heptan-6-yl]methanone], with 94.4 nM; and `NC(=O)c1ccc(S(=O)(=O)N2CC3(CN(C(=O)N4CC5(CC(n6cnc(C7CC7)n6)C5)C4)C3)C2)cc1` [Example 298, 4-[[6-[6-(3-cyclopropyl-1,2,4-triazol-1-yl)-2-azaspiro[3.3]heptane-2-carbonyl]-2,6-diazaspiro[3.3]heptan-2-yl]sulfonyl]benzamide], with 95.5 nM.
For `CC(C)(Cc1cccc(OC2CN(C(=O)N3CC4(CC(n5cnc(C6CC6)n5)C4)C3)C2)c1)C(=O)O` [Example 299, 3-[3-[1-[6-(3-cyclopropyl-1,2,4-triazol-1-yl)-2-azaspiro[3.3]heptane-2-carbonyl]azetidin-3-yl]oxyphenyl]-2,2-dimethyl-propanoic acid] the value was 95.7 nM; for `Cc1oncc1S(=O)(=O)N1CC2(CN(C(=O)N3CC4(CC(n5cnc(C6CC6)n5)C4)C3)C2)C1` [Example 300, [6-(3-cyclopropyl-1,2,4-triazol-1-yl)-2-azaspiro[3.3]heptan-2-yl]-[2-(5-methylisoxazol-4-yl)sulfonyl-2,6-diazaspiro[3.3]heptan-6-yl]methanone], 95.7 nM; for `O=C(N1CC(CNS(=O)(=O)c2ccc(F)cc2C(F)(F)F)C1)N1CC2(CC(n3cnc(C4CC4)n3)C2)C1` [Example 302], 101 nM.
For `O=C(N1CC(Oc2cncc(C(F)(F)F)n2)C1)N1CC2(CC(n3cnc(C4CC4)n3)C2)C1` [Example 303, [6-(3-cyclopropyl-1,2,4-triazol-1-yl)-2-azaspiro[3.3]heptan-2-yl]-[3-[6-(trifluoromethyl)pyrazin-2-yl]oxyazetidin-1-yl]methanone] the value was 101 nM; for `O=C(N1CC2(CC(n3cnc(C4CC4)n3)C2)C1)N1CC2(C1)CN(S(=O)(=O)C(F)(F)F)C2` [Example 304, [6-(3-cyclopropyl-1,2,4-triazol-1-yl)-2-azaspiro[3.3]heptan-2-yl]-[2-(trifluoromethylsulfonyl)-2,6-diazaspiro[3.3]heptan-6-yl]methanone], 108 nM.
`NC(=O)C(c1ccc(F)cc1)C1CCN(C(=O)N2CC3(CC(n4cnc(C5CC5)n4)C3)C2)CC1` (stereo not drawn) [Example 305, 2-[1-[6-(3-cyclopropyl-1,2,4-triazol-1-yl)-2-azaspiro[3.3]heptane-2-carbonyl]-4-piperidyl]-2-(4-fluorophenyl)acetamide] registered an IC50 of 117 nM.
For `NC(=O)[C@H](c1ccc(F)cc1)N1CCN(C(=O)N2CC3(CC(n4cnc(C5CC5)n4)C3)C2)CC1` [Example 306, (2S)-2-[4-[6-(3-cyclopropyl-1,2,4-triazol-1-yl)-2-azaspiro[3.3]heptane-2-carbonyl]piperazin-1-yl]-2-(4-fluorophenyl)acetamide] the value was 129 nM; for `O=C(N1CC(OCc2ccc(S(F)(F)(F)(F)F)cc2)C1)N1CC2(CC(n3cnc(C(F)(F)F)c3)C2)C1` [Example 307, [3-[[4-(pentafluoro-λ^6-sulfanyl)phenyl]methoxy]azetidin-1-yl]-[6-[4-(trifluoromethyl)imidazol-1-yl]-2-azaspiro[3.3]heptan-2-yl]methanone], 136 nM.
For the molecule `N#Cc1ccc(S(=O)(=O)N2CC3(CN(C(=O)N4CC5(CC(n6cnc(C7CC7)n6)C5)C4)C3)C2)cc1` [Example 308], the IC50 was 138 nM.
Then `COc1ncccc1S(=O)(=O)N1CC2(CN(C(=O)N3CC4(CC(n5cnc(C6CC6)n5)C4)C3)C2)C1` [Example 309, [6-(3-cyclopropyl-1,2,4-triazol-1-yl)-2-azaspiro[3.3]heptan-2-yl]-[2-[(2-methoxy-3-pyridyl)sulfonyl]-2,6-diazaspiro[3.3]heptan-6-yl]methanone], with 148 nM.
